Measured values reported in patent US20200093838A1, “METHODS FOR TREATING AND PREVENTING ALLERGIES AND ACUTE ALLERGIC RESPONSES” (priority 2015, published 2020).
“Also recorded” adds a separate entry of the source.

Experiments:
[1] = test system: CD4+ T cells from steroid-resistant asthmatics; settings: 500 nM; cited from earlier work
Cyp11a1 [2] = assay: CYP11A1 immunoblot analyses of CD8+ T cells; type: cell-based, mouse; settings: 100 nM or 1 μM during differentiation in IL-2+IL-4
Text: J. Allergy Clin. Immunol. 121, 864-871 e864 (2008)). […] Samples were run by sodium dodecyl sulfate polyacrylamide gel electrophoresis (SDS-PAGE) and transferred to nitrocellulose membranes. […] Horseradish peroxidase-conjugated anti-rabbit IgG (GE Healthcare, Hertfordshire, UK) was used to detect CYP11A1 protein. Mouse monoclonal anti-β-actin antibody (Sigma-Aldrich, St. Louis, Mo.) was used as an internal control. Immunoreactive bands were quantified by densitometric quantification of autoradiographs using Image J (NIMH, Bethesda, Md.), and expressed as relative CYP11A1 normalized to β-actin (Sigma-Aldrich, St. Louis, Mo.).

Gata3 = assay: qPCR gene expression of Gata3 in CD8+ T cells; type: cell-based, mouse; settings: IL-4 and 1,25D3 present during CD8+ T-cell differentiation
Text: (§1) J. Allergy Clin. Immunol. 121, 864-871 e864 (2008)).

[3] = test system: sensitized and challenged CD8-deficient mice; assay: Secondary allergen challenge model with adoptive transfer: lung histology (PAS); type: in vivo, mouse; settings: recipients of 1,25D3-treated CD8+ T cells
Description: (§2) 190, 4056-4065 (2013).; Ohnishi, H., et al. […] J. Allergy Clin. Immunol. 121, 864-871 e864 (2008)) with some modifications. CD8-deficient mice were sensitized with 20 μg of OVA (Calbiochem, La Jolla, Calif.) emulsified in 2.25 mg of alum (AlumImuject; Pierce, Rockford, Ill.) on days 0 and 14 by intraperitoneal injection. […] Omron Healthcare, Kyoto, JP). […] Airway function was measured and samples were collected 48 hours after the secondary challenge. […] Am. J. Respir. Crit. Care Med. 163, 173-184 (2001)). Lung histology: […] Paraffin sections (5-μm thick) were stained with periodic acid-Schiff (PAS).

Cyp11a1 [4] = assay: ELISA for pregnenolone in supernatants of CD8+ T cells (CYP11A1 enzymatic activity); type: cell-based, mouse; settings: cells cultured in the presence of 1,25D3 (100 nM or 1 μM)
Text: as §1

[5] = test system: sensitized and challenged CD8-deficient mice; assay: Secondary allergen challenge model with adoptive transfer: bronchoalveolar lavage (BAL) fluid analyses; type: in vivo, mouse
Description: as §2, with “Bronchoalveolar lavage (BAL) fluid analyses: After measurement of AHR, lungs were lavaged via the tracheal tube with 1 ml of HBSS.” for “Lung histology:”, “J. Allergy Clin. Immunol. 121, 864-871 e864 (2008)). […] J. Allergy Clin. Immunol. 121, 864-871 e864 (2008)).” for “Paraffin sections (5-μm thick) were stained with periodic acid-Schiff (PAS).”

CD8+ T cells [6] = assay: Cell viability (total cell numbers) during CD8+ T cell differentiation; type: cell-based, mouse; settings: IL-2 or IL-2+IL-4; 100 nM or 1 μM; days 0 and 4
Text: Data (mean±SEM) are from five experiments. **p<0.01 compared to the IL-2 group on day 4.
as §1

[7] = test system: sensitized and challenged CD8-deficient mice; assay: Secondary allergen challenge model with adoptive transfer of 1,25D3-treated CD8+ T cells: airway function (AHR); type: in vivo, mouse; settings: transfer of IL-2-differentiated CD8+ T cells cultured with 1,25D3 (100 nM or 1 μM)
Description: as §2, with “(2001)).” for “(2001)). Lung histology:”, “J. Allergy Clin. Immunol. 121, 864-871 e864 (2008)) by measuring changes in airway resistance (RL) in response to increasing doses of inhaled methacholine (MCh, Sigma-Aldrich, St. Louis, Mo.). Data” for “Paraffin sections (5-μm thick)”, “presented as percentage change from the baseline RL values after saline inhalation.” for “stained with periodic acid-Schiff (PAS).”

Cyp11a1 [8] = assay: qPCR gene expression of Cyp11a1 in CD8+ T cells; type: cell-based, mouse; settings: 100 nM or 1 μM during differentiation in IL-2+IL-4
Text: as §1

Tbx21 = assay: qPCR gene expression of Tbx21 in CD8+ T cells; type: cell-based, mouse; settings: IL-4 and 1,25D3 present during CD8+ T-cell differentiation
Text: as §1

CD8+ T cells [9] = assay: Intracellular staining (flow cytometry) of IFN-γ and IL-13 in CD8+ T cells differentiated in IL-2 or IL-2+IL-4; type: cell-based, mouse
Description: as §1
Flow cytometry analyses: For intracellular staining, 1×10^6/ml cells were washed twice with PBS containing 1% BSA, stimulated with 1 μg/ml […] in the presence of 2 μM monensin at 37° C. for 4 hours. After fixation with 4% paraformaldehyde (Electron Microscopy Sciences, Hatfield, Pa.) and permeabilization with 0.1% saponin (Sigma-Aldrich, St. Louis, Mo.), cells were washed twice with PBS containing 1% BSA, then incubated with anti-mouse CD16/CD32 (2.4G2, BD Bioscience, San Jose, Calif.) at 4° C. for 5 minutes, then stained with FITC labeled anti-mouse IFN-γ (XMG 1.2, eBioscience, San Diego, Calif.) and PE-labeled anti-mouse IL-13 (eBio13A, eBioscience, San Diego, Calif.). […] J. Allergy Clin. Immunol. 121, 864-871 e864 (2008)).

Cyp11a1 [10] = settings: inhibition of the enzymatic activity of CYP11A1; cited from earlier work
[11] = test system: sensitized and challenged CD8-deficient mice; settings: inhibition of the enzymatic activity of CYP11A1; cited from earlier work
[12] = compared to recipients of untreated cells, 1,25D3 100 nM or 1 μM
[13] = IL-2 + IL-4 + TCR + VitD (100 nM)
[14] = IL-2 + IL-4 + TCR + VitD (100 nM), listed as VitD
[15] = IL-2 + IL-4 + TCR + VitD (1 μM)
[16] = cultured with SIINFEKL and IL-2+IL-4, 1,25D3 100 nM, 1 μM during differentiation

C=C1/C(=C\C=C2/CCC[C@]3(C)[C@@H]([C@H](C)CCCC(C)(C)O)CC[C@@H]23)C[C@@H](O)C[C@@H]1O [1,25D3, 1,25-dihydroxy vitamin D3]
in vitro effectiveness in CD4+ T cells from steroid-resistant asthmatics [1]: effective | CYP11A1 protein levels (Cyp11a1 [2]): decreased | Gata3 gene expression (Gata3): only marginally altered; also recorded: affected | inflammation in lung sections [3]: less inflammation | numbers of PAS+ mucus-containing goblet cells [3]: prevents; also recorded: significantly decreased numbers | pregnenolone levels in supernatants (CYP11A1 enzymatic activity) (Cyp11a1 [4]): markedly reduced; also recorded: decreased | IL-4 level in BAL fluid [5, 12]: decreased; also recorded: significantly lower | IL-5 level in BAL fluid [5, 12]: decreased; also recorded: significantly lower | IL-13 level in BAL fluid [5, 12]: decreased; also recorded: significantly lower | airway inflammation (cell composition in BAL fluid) ([5]; transfer of IL-2-differentiated CD8+ T cells cultured with 1,25D3 (100 nM or 1 μM)): failed to restore | effect on cell viability (CD8+ T cells [6]): not altered; also recorded: no significant effect | airway hyperresponsiveness (AHR) [7]: fails to induce; also recorded: failed to restore | CYP11A1 transcript levels (Cyp11a1 [8]): decreased | Tbx21 gene expression (Tbx21): only marginally altered; also recorded: affected | cytokine profiles (IFN-γ and IL-13) of differentiated CD8+ T cells (CD8+ T cells [9]; 1,25D3 (100 nM or 1 μM) added only during antigen (SIINFEKL) re-stimulation phase, last 4 hours, IL-2+IL-4): does not alter; also recorded: unaffected | % of positive cells, IFN-γ+ (CD8+ T cells [9]; [13]): 24.5±4.8% | % of positive cells, IFN-ν+ IL-13+ (CD8+ T cells [9]; [13]): 4% | % of positive cells, IFN-ν− IL-13− (CD8+ T cells [9]; [13]): 55.1% | % of positive cells, IL-13+ (CD8+ T cells [9]; [13]): 11.3±4.8% | % of positive cells, IFN-γ+ (CD8+ T cells [9]; [14]): 24.5% | % of positive cells, IL-13+ (CD8+ T cells [9]; [14]): 11.3% | % of positive cells, IFN-γ+ (CD8+ T cells [9]; [15]): 30.6% | % of positive cells, IFN-ν+ IL-13+ (CD8+ T cells [9]; [15]): 3.5% | % of positive cells, IFN-ν− IL-13− (CD8+ T cells [9]; [15]): 53.9% | % of positive cells, IL-13+ (CD8+ T cells [9]; [15]): 8.3% | % of positive cells, IFN-γ+ (CD8+ T cells [9]; IL-2 + IL-4 + VitD (100 nM)): 2.2% | % of positive cells, IFN-ν+ IL-13+ (CD8+ T cells [9]; IL-2 + IL-4 + VitD (100 nM)): 0.2% | % of positive cells, IFN-ν− IL-13− (CD8+ T cells [9]; IL-2 + IL-4 + VitD (100 nM)): 92.7% | % of positive cells, IL-13+ (CD8+ T cells [9]; IL-2 + IL-4 + VitD (100 nM)): 4.6% | % of positive cells, IFN-γ+ (CD8+ T cells [9]; IL-2 + IL-4 + VitD (1 μM)): 2.7% | % of positive cells, IFN-ν+ IL-13+ (CD8+ T cells [9]; IL-2 + IL-4 + VitD (1 μM)): 0.2% | % of positive cells, IFN-ν− IL-13− (CD8+ T cells [9]; IL-2 + IL-4 + VitD (1 μM)): 92.9% | % of positive cells, IL-13+ (CD8+ T cells [9]; IL-2 + IL-4 + VitD (1 μM)): 3.8% | % of positive cells, IFN-γ+ (CD8+ T cells [9]; IL-2 + TCR + VitD (100 nM)): 76.8% | % of positive cells, IFN-ν+ IL-13+ (CD8+ T cells [9]; IL-2 + TCR + VitD (100 nM)): 0.4% | % of positive cells, IFN-ν− IL-13− (CD8+ T cells [9]; IL-2 + TCR + VitD (100 nM)): 22.6% | % of positive cells, IL-13+ (CD8+ T cells [9]; IL-2 + TCR + VitD (100 nM)): 0.1% | % of positive cells, IFN-γ+ (CD8+ T cells [9]; IL-2 + TCR + VitD (1 μM)): 76.2% | % of positive cells, IFN-ν+ IL-13+ (CD8+ T cells [9]; IL-2 + TCR + VitD (1 μM)): 0.4% | % of positive cells, IFN-ν− IL-13− (CD8+ T cells [9]; IL-2 + TCR + VitD (1 μM)): 23.7% | % of positive cells, IL-13+ (CD8+ T cells [9]; IL-2 + TCR + VitD (1 μM)): 0.1% | % of positive cells, IFN-γ+ (CD8+ T cells [9]; IL-2 + VitD (100 nM)): 3.1% | % of positive cells, IFN-ν+ IL-13+ (CD8+ T cells [9]; IL-2 + VitD (100 nM)): 0% | % of positive cells, IFN-ν− IL-13− (CD8+ T cells [9]; IL-2 + VitD (100 nM)): 96.8% | % of positive cells, IL-13+ (CD8+ T cells [9]; IL-2 + VitD (100 nM)): 0.2% | % of positive cells, IFN-γ+ (CD8+ T cells [9]; IL-2 + VitD (1 μM)): 4.3% | % of positive cells, IFN-ν+ IL-13+ (CD8+ T cells [9]; IL-2 + VitD (1 μM)): 0% | % of positive cells, IFN-ν− IL-13− (CD8+ T cells [9]; IL-2 + VitD (1 μM)): 95.8% | % of positive cells, IL-13+ (CD8+ T cells [9]; IL-2 + VitD (1 μM)): 0.2% | IFN-γ+ cells (change) (CD8+ T cells [9]; [16]): increase | percentage of IL-13+ cells (change) (CD8+ T cells [9]; [16]): dose-dependent decrease | IFN-γ-producing capacity of Tc1 cells (CD8+ T cells [9]; differentiated in IL-2 alone, 1,25D3 added during differentiation): not affected

CCC1(c2ccc(N)cc2)CCC(=O)NC1=O (stereo not drawn) [AMG, aminoglutethimide]
conversion of CD8+ T cells to IL-13 production (Cyp11a1 [10]): inhibitory effects | lung allergic responses in sensitized and challenged CD8-deficient mice [11]: failure to restore
